Data from PubChem BioAssay AID2060910 (Molecular Pharmacology Branch, DTP, NCI, 2025).

Test system: 242566-281-R-J2-PDC complex spheroid viability
Assay: Anticancer human tumor 242566-281-R-J2-PDC patient-derived pancreatic carcinoma cell line growth inhibition [RAS]
Settings: for IC50: curve of first compound; for viability, T/C: stronger effect = lower value
Method in brief: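 Multi-cell-type spheroids: tumor cells plus HUVEC endothelial cells and mesenchymal stem cells. RAS-pathway inhibitors were combined with targeted agents, each dosed in half-log steps down from clinical Cmax, or from 10 microM when Cmax was unknown.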
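Also: spheroids exposed to compound for 7 days before readout.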
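For viability, T/C in this document: 100% = DMSO vehicle control wells.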

Structure (SMILES): CC1(C)CCC(Nc2ncc(C(F)(F)F)c(-c3c[nH]c4c(P(C)(C)=O)c(C#N)ccc34)n2)CN1 (configuration not stated) + CCn1c(-c2cccnc2C(C)OC)c2c3cc(ccc31)N1CCOC(CC(NC(=O)C(C(C)C)N(C)C(=O)C3(F)CCN(C(=O)C#CC(C)(C)N(C)C)CC3)C(=O)N3CCCC(N3)C(=O)OCC(C)(C)C2)C1
- IC50 (second compound 0.000949 µM): > 0.3 µM
- IC50 (second compound 0.003 µM): > 0.3 µM
- IC50 (second compound 0.00949 µM): > 0.3 µM
- IC50 (second compound 0.03 µM): > 0.3 µM
- IC50 (second compound 0.0949 µM): > 0.3 µM
- IC50 (second compound 0.3 µM): > 0.3 µM
- viability, T/C (second compound 0.000949 µM, first compound 0.000949 µM): 114%
- viability, T/C (second compound 0.000949 µM, first compound 0.003 µM): 100%
- viability, T/C (second compound 0.000949 µM, first compound 0.00949 µM): 77.1%
- viability, T/C (second compound 0.000949 µM, first compound 0.03 µM): 97.6%
- viability, T/C (second compound 0.000949 µM, first compound 0.0949 µM): 94%
- viability, T/C (second compound 0.000949 µM, first compound 0.3 µM): 70.7%
- viability, T/C (second compound 0.003 µM, first compound 0.000949 µM): 111%
- viability, T/C (second compound 0.003 µM, first compound 0.003 µM): 86%
- viability, T/C (second compound 0.003 µM, first compound 0.00949 µM): 82.8%
- viability, T/C (second compound 0.003 µM, first compound 0.03 µM): 88.2%
- viability, T/C (second compound 0.003 µM, first compound 0.0949 µM): 95.4%
- viability, T/C (second compound 0.003 µM, first compound 0.3 µM): 73.6%
- viability, T/C (second compound 0.00949 µM, first compound 0.000949 µM): 109%
- viability, T/C (second compound 0.00949 µM, first compound 0.003 µM): 86.5%
- viability, T/C (second compound 0.00949 µM, first compound 0.00949 µM): 92.3%
- viability, T/C (second compound 0.00949 µM, first compound 0.03 µM): 90.7%
- viability, T/C (second compound 0.00949 µM, first compound 0.0949 µM): 90.5%
- viability, T/C (second compound 0.00949 µM, first compound 0.3 µM): 82.9%
- viability, T/C (second compound 0.03 µM, first compound 0.000949 µM): 95.4%
- viability, T/C (second compound 0.03 µM, first compound 0.003 µM): 103%
- viability, T/C (second compound 0.03 µM, first compound 0.00949 µM): 96%
- viability, T/C (second compound 0.03 µM, first compound 0.03 µM): 91.1%
- viability, T/C (second compound 0.03 µM, first compound 0.0949 µM): 70.4%
- viability, T/C (second compound 0.03 µM, first compound 0.3 µM): 93.4%
- viability, T/C (second compound 0.0949 µM, first compound 0.000949 µM): 88.2%
- viability, T/C (second compound 0.0949 µM, first compound 0.003 µM): 93.4%
- viability, T/C (second compound 0.0949 µM, first compound 0.00949 µM): 90.3%
- viability, T/C (second compound 0.0949 µM, first compound 0.03 µM): 84.8%
- viability, T/C (second compound 0.0949 µM, first compound 0.0949 µM): 64.8%
- viability, T/C (second compound 0.0949 µM, first compound 0.3 µM): 79.2%
- viability, T/C (second compound 0.3 µM, first compound 0.000949 µM): 91%
- viability, T/C (second compound 0.3 µM, first compound 0.003 µM): 83.9%
- viability, T/C (second compound 0.3 µM, first compound 0.00949 µM): 75.2%
- viability, T/C (second compound 0.3 µM, first compound 0.03 µM): 63.8%
- viability, T/C (second compound 0.3 µM, first compound 0.0949 µM): 71.8%
- viability, T/C (second compound 0.3 µM, first compound 0.3 µM): 79.8%
